According to paper PMC12006171, “Marsupial cathelicidins: characterization, antimicrobial activity and evolution in this unique mammalian lineage” (Frontiers in Immunology, 2025):
Values after ≈ are worked out from the molar mass of the structure shown. Where two headings read alike, the source gives them in different places. Where a SMILES comes first, the peptide text is derived from it.

Columns and labels:
Format in all cases: cell-based
[1] = test system: Candida albicans Clinical isolate - human; experiment: microbe, parasite or virus in culture
Summary of the method: (§1)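 Broth microdilution per CLSI M07-A/M26A; peptides in DMSO, final 64-0.125 μg/mL, inoculum 5 x 10^5 CFU/mL. Bacteria in MHB ± 10% lysed horse blood ± Ca/Mg cations, yeasts in RPMI-1640 MOPS; 35°C for 20–24 h. MIC is lowest concentration without visible growth.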

Candida krusei ATCC 6258 = experiment: microbe, parasite or virus in culture
Summary of the method: as §1

[2] = test system: Candida parapsilosis ATCC 22019; experiment: microbe, parasite or virus in culture
Summary of the method: as §1

[3] = test system: Streptococcus agalactiae Clinical isolate - animal; experiment: microbe, parasite or virus in culture; details: clinical isolate - animal; read-out: MIC S. agalactiae
Summary of the method: as §1

[4] = test system: Streptococcus agalactiae ATCC 12386; experiment: microbe, parasite or virus in culture; details: ATCC 12386; read-out: MIC S. agalactiae ATCC
Summary of the method: as §1

[5] = test system: Streptococcus pneumoniae ATCC 49619; experiment: microbe, parasite or virus in culture; details: ATCC 49619; read-out: MIC S. pneumoniae ATCC
Summary of the method: as §1

[6] = test system: Staphylococcus aureus ATCC 29213; experiment: microbe, parasite or virus in culture; details: ATCC 29213
Summary of the method: (§2)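 Broth microdilution following CLSI M07-A/M26A, using peptides at 64–0.125 μg/mL final in MHB, with or without 10% lysed horse blood and with or without Ca/Mg cations (MH II B). Inoculum 5 x 10^5 CFU/mL, incubated 20–24 h at 35 °C; MIC is lowest concentration preventing visible growth, MBC by colony counts versus starting inoculum.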

[7] = test system: Pseudomonas aeruginosa clinical isolate - animal; experiment: microbe, parasite or virus in culture; details: clinical isolate - animal
Summary of the method: as §2

[8] = test system: Pseudomonas aeruginosa ATCC 27853; experiment: microbe, parasite or virus in culture; details: ATCC 27853
Summary of the method: as §2

[9] = test system: Staphylococcus aureus clinical isolate - animal; experiment: microbe, parasite or virus in culture; details: clinical isolate - animal
Summary of the method: as §2

[10] = test system: Escherichia coli ATCC 25922; experiment: microbe, parasite or virus in culture; details: ATCC 25922
Summary of the method: as §2

[11] = test system: Escherichia coli clinical isolate - animal; experiment: microbe, parasite or virus in culture; details: clinical isolate - animal
Summary of the method: as §2

[12] = test system: Staphylococcus aureus clinical isolate – animal, methicillin-resistant (MRSA); details: clinical isolate – animal, methicillin-resistant
Description: (§3) Antimicrobial testing of 78 cathelicidin MPs was performed in two phases as outlined in Figure 1 . In phase I, 40 peptides (27 extant and 13 ancestral) were selected for testing based on rank (outlined above) and similarity to published marsupial cathelicidins with known antimicrobial activity ([33], [41]–[43]). These peptides were tested against nine bacteria (Staphylococcus aureus ATCC 29213 and clinical isolate, Escherichia coli ATCC 25922 and clinical isolate, Pseudomonas aeruginosa ATCC 27853 and clinical isolate, Streptococcus agalactiae ATCC 12386 and clinical isolate, Streptococcus pneumoniae ATCC 49619) and three fungi (Candida krusei ATCC 6258, Candida parapsilosis ATCC 22019, and Candida albicans clinical isolate). Details regarding these strains are available in Supplementary Table 4 . The antimicrobial activity of cathelicidins was determined as the minimum inhibitory concentration (MIC), which was the lowest concentration of cathelicidin that prevented visible bacterial or fungal growth, relative to the negative control. […] Minimum bactericidal concentration (MBC) and/or minimum fungicidal concentration (MFC) was conducted to determine microbicidal versus static action. Activity against S. aureus ATCC, E. coli ATCC, and Pseudomonas aeruginosa ATCC 27853 was examined in the presence of divalent cations to determine the impact of inhibitors.
(§4) Antimicrobial activity was determined using a broth microdilution susceptibility assay in 96 well polypropylene plates according to Clinical Laboratory Standards Institute guidelines M07-A and M26A as described previously ([33], [42], [43]). The bacterial and fungal isolates from humans and animals used in this study are outlined in Supplementary Table 4 . Only yeasts were included in the panel of fungi as they have been used in the susceptibility testing of eutherian ([3], [81]–[83]) and other marsupial cathelicidins previously ([33], [42], [43]). Cathelicidin mature peptides were solubilized in DMSO and serially diluted in duplicate from 128-0.25μg/mL in a final volume of 100µL. For bacteria, cathelicidins were diluted in Mueller Hinton Broth (MHB) with or without 10% lysed horse blood, and with (MH II B) or without (MHB) calcium and magnesium cations. For fungi, cathelicidins were diluted in Roswell Park Memorial Institute medium (RPMI)-1640 MOPS. Ampicillin or tetracycline were included as a positive control for Gram-positive and -negative bacteria respectively, while amphotericin B was used for fungi. A media-only negative control and growth control (no cathelicidin) were also included on each plate. Bacteria were sub-cultured on Muller Hinton agar (MHA) or sheep blood agar (BA), and fungi on Sabouraud dextrose agar (SAB), 20–24 hours prior to the test. Colonies were suspended in saline, the concentration adjusted to a 0.5 McFarland standard, and then diluted in media to a concentration of 1.0 x 10^6 cells/mL. Then, 100μL was added to each well of the cathelicidin dilution plate, giving a final inoculum density of 5 x 10^5 CFU/mL and cathelicidin concentration of 64-0.125μg/mL. Colony counts were performed on MHA/BA/SAB to confirm inoculum density. All plates were incubated at 35°C for 20–24 hours, depending on the strain.
(§5) Colonies were counted and compared to the colony count of the starting inoculum.

[13] = test system: Staphylococcus aureus clinical isolate – animal, penicillin-resistant (PRSA); details: clinical isolate – animal, penicillin-resistant (PRSA)
Description: as §3, §4, §5

[14] = Clinical isolate - human, read-out: MIC C. albicans
[15] = ATCC 6258, read-out: MIC C. krusei ATCC
[16] = read-out: MIC P. aeruginosa ATCC

Compound: CC[C@H](C)[C@H](NC(=O)[C@H](CCCNC(=N)N)NC(=O)[C@@H](N)CCCCN)C(=O)NCC(=O)N[C@@H](Cc1ccccc1)C(=O)NCC(=O)N[C@@H](CC(C)C)C(=O)N[C@@H](Cc1ccccc1)C(=O)N[C@@H](Cc1c[nH]c2ccccc12)C(=O)N[C@@H](CC(=O)O)C(=O)NCC(=O)N[C@@H](CC(C)C)C(=O)N[C@@H](CCCNC(=N)N)C(=O)N[C@@H](CCCCN)C(=O)N[C@@H](CC(C)C)C(=O)NCC(=O)N[C@@H](CC(N)=O)C(=O)N[C@@H](CCCNC(=N)N)C(=O)N[C@H](C(=O)N[C@@H](CCCCN)C(=O)N[C@@H](CC(N)=O)C(=O)N[C@@H](CCCNC(=N)N)C(=O)N[C@H](C(=O)N[C@@H](CCCNC(=N)N)C(=O)N[C@@H](CC(=O)O)C(=O)N[C@@H](Cc1ccccc1)C(=O)N[C@@H](Cc1ccccc1)C(=O)N[C@@H](CO)C(=O)N[C@@H](CCCCN)C(=O)N[C@@H](Cc1ccccc1)C(=O)N[C@@H](CC(C)C)C(=O)NCC(=O)O)[C@@H](C)CC)[C@@H](C)CC [MAP9] (H-KRIGFGLFWDGLRKLGNRIKNRIRDFFSKFLG-OH)
- MIC [1, 14]: >16.5 µM
- MFC C. krusei ATCC (Candida krusei ATCC 6258; ATCC 6258): 16.5 µM (≈ 63.6 µg/mL)
- MIC (Candida krusei ATCC 6258; [15]): 8.2 µM
- MFC C. parapsilosis ATCC ([2]; ATCC 22019): > 16.5 µM
- MIC C. parapsilosis ATCC ([2]; ATCC 22019): 16.5 µM (≈ 63.6 µg/mL)

Compound: CC[C@H](C)[C@H](NC(=O)[C@H](CCCCN)NC(=O)[C@H](Cc1ccccc1)NC(=O)[C@H](CC(N)=O)NC(=O)[C@H](CCCCN)NC(=O)[C@H](CC(C)C)NC(=O)[C@H](CCCNC(=N)N)NC(=O)[C@H](CCCCN)NC(=O)[C@H](CCCCN)NC(=O)[C@@H](NC(=O)[C@H](CCC(=O)O)NC(=O)[C@H](CC(=O)O)NC(=O)CNC(=O)[C@H](Cc1ccccc1)NC(=O)[C@H](CCCCN)NC(=O)[C@H](CCCCN)NC(=O)[C@H](CC(C)C)NC(=O)[C@H](CCCCN)NC(=O)[C@H](CCCCN)NC(=O)[C@H](CCCCN)NC(=O)[C@H](CC(C)C)NC(=O)[C@H](Cc1c[nH]c2ccccc12)NC(=O)[C@H](CCCNC(=N)N)NC(=O)[C@H](Cc1ccccc1)NC(=O)CNC(=O)CNC(=O)[C@H](CCCNC(=N)N)NC(=O)[C@@H](N)CCCCN)[C@@H](C)CC)C(=O)NCC(=O)N[C@@H](Cc1ccccc1)C(=O)N[C@@H](CC(C)C)C(=O)N[C@H](C(=O)N1CCC[C@H]1C(=O)N[C@@H](CC(C)C)C(=O)O)[C@@H](C)CC [MAP13] (H-KRGGFRWLKKKLKKFGDEIKKRLKNFKIGFLIPL-OH)
- MIC [3]: >15.4 µM
- MIC [4]: >15.4 µM
- MIC [1, 14]: >15.4 µM
- MIC (Candida krusei ATCC 6258; [15]): >15.4 µM
- MFC C. parapsilosis ATCC ([2]; ATCC 22019): > 15.4 µM
- MIC ([2]; ATCC 22019, read-out: MIC C. parapsilosis ATCC): 7.7 µM
- MIC [5]: >15.4 µM
- MIC ([6]; read-out: MIC S. aureus ATCC): >15.4 µM
- MBC P. aeruginosa [7]: 15.4 (15.4)^15.4 µM
- MIC P. aeruginosa [7]: 15.4 (15.4)^15.4 µM
- MIC in the presence of cations P. aeruginosa [7]: 15.4 (15.4)^15.4 µM
- MBC P. aeruginosa ATCC [8]: 15.4 µM (≈ 63.6 µg/mL)
- MIC [8, 16]: 7.7 µM (≈ 31.8 µg/mL)
- MIC ([8]; read-out: MIC in the presence of cations P. aeruginosa ATCC): 15.4 µM
- MIC ([9]; read-out: MIC S. aureus): >15.4 µM
- MBC E. coli ATCC [10]: 7.7 (7.7)^7.7 µM
- MIC E. coli ATCC [10]: 7.7 (7.7)^7.7 µM
- MIC in the presence of cations E. coli ATCC [10]: 7.7 (7.7)^7.7 µM
- MBC E. coli [11]: 7.7 (7.7)^7.7 µM
- MIC E. coli [11]: 7.7 (7.7)^7.7 µM
- MIC in the presence of cations E. coli [11]: 7.7 (7.7)^7.7 µM

Compound: CC[C@H](C)[C@H](NC(=O)[C@H](CCCNC(=N)N)NC(=O)[C@@H](N)CCCCN)C(=O)NCC(=O)N[C@@H](CC(C)C)C(=O)NCC(=O)NCC(=O)N[C@@H](CC(C)C)C(=O)N[C@H](C(=O)N[C@@H](CCCNC(=N)N)C(=O)N[C@@H](CCCNC(=N)N)C(=O)N[C@H](C(=O)N[C@@H](Cc1c[nH]c2ccccc12)C(=O)N[C@@H](CC(N)=O)C(=O)N[C@@H](CCCNC(=N)N)C(=O)N[C@H](C(=O)N[C@@H](CCCNC(=N)N)C(=O)N[C@@H](CCCNC(=N)N)C(=O)N[C@@H](CCCNC(=N)N)C(=O)NCC(=O)O)[C@@H](C)CC)[C@@H](C)CC)C(C)C [SmcrCath3] (H-KRIGLGGLVRRIWNRIRRRG-OH)
- MIC [3]: >26.3 µM
- MIC [4]: >26.3 µM
- MFC C. albicans ([1]; Clinical isolate - human): 26.3 µM (≈ 64 µg/mL)
- MIC (Candida krusei ATCC 6258; [15]): 6.5 µM
- MIC [5]: >26.3 µM
- MBC S. aureus ATCC [6]: 6.5 (6.5)^6.5 µM
- MIC S. aureus ATCC [6]: 6.5 (6.5)^6.5 µM
- MIC in the presence of cations S. aureus ATCC [6]: 6.5 (6.5)^6.5 µM
- MBC P. aeruginosa [7]: > 26.3 µM
- MIC ([7]; read-out: MIC P. aeruginosa): 26.3 µM (≈ 64 µg/mL)
- MIC [8, 16]: >26.3 µM
- MBC S. aureus [9]: 6.5 (6.5)^6.5 µM
- MIC S. aureus [9]: 6.5 (6.5)^6.5 µM
- MIC in the presence of cations S. aureus [9]: 6.5 (6.5)^6.5 µM
- MBC E. coli ATCC [10]: 6.5 µM (≈ 15.8 µg/mL)
- MIC ([10]; read-out: MIC E. coli ATCC): 6.5 µM (≈ 15.8 µg/mL)
- MIC ([10]; read-out: MIC in the presence of cations E. coli ATCC): 13.1 µM
- MBC E. coli [11]: 6.5 µM (≈ 15.8 µg/mL)
- MIC [11]: 3.2 µM (≈ 7.79 µg/mL)
- MIC in the presence of cations E. coli [11]: 6.5 µM
- MBC MRSA [12]: 6.5 µM (≈ 15.8 µg/mL)
- MIC MRSA [12]: 6.5 µM (≈ 15.8 µg/mL)
- MBC PRSA [13]: 6.5 µM (≈ 15.8 µg/mL)
- MIC PRSA [13]: 3.2 µM (≈ 7.79 µg/mL)

Compound: C[C@@H]1[C@H](O)[C@@H](C)/C=C/C=C/C=C/C=C/C=C/C=C/C=C/[C@H](O[C@@H]2O[C@H](C)[C@@H](O)[C@H](N)[C@@H]2O)C[C@@H]2O[C@](O)(C[C@@H](O)C[C@@H](O)[C@H](O)CC[C@@H](O)C[C@@H](O)CC(=O)O[C@H]1C)C[C@H](O)[C@H]2C(=O)O [Amphotericin B, reference compound]
- MIC ([1]; Candida albicans, clinical isolate, RPMI-1640 MOPS, 5 x 10^5 CFU/mL, 35°C 20–24 hours, duplicate): 0.5 µg/mL
- MIC ([1]; Candida albicans, clinical isolate, µM version of Table 4, read-out: MIC C. albicans): 0.5 µM
- MIC (Candida krusei ATCC 6258; Pichia kudriavzevii, ATCC6258, RPMI-1640 MOPS, 5 x 10^5 CFU/mL, 35°C 20–24 hours, duplicate): 1 µg/mL
- MIC (Candida krusei ATCC 6258; Pichia kudriavzevii, ATCC6258, µM version of Table 4, read-out: MIC C. krusei ATCC): 1 µM
- MIC ([2]; Lodderomyces parapsilosis, ATCC22019, RPMI-1640 MOPS, 5 x 10^5 CFU/mL, 35°C 20–24 hours, duplicate): 0.5 µg/mL
- MIC ([2]; Lodderomyces parapsilosis, ATCC22019, µM version of Table 4, read-out: MIC C. parapsilosis ATCC): 0.5 µM
